According to paper PMC6478789, “A chemical toolbox for the study of bromodomains and epigenetic signaling” (Nature Communications, 2019):
pKd: −log10 of the molar value. Like-named read-outs stand apart in the source and are kept apart here. Each block holds one molecule with its values, some of them ahead of it.

Columns and labels:
[1] = target: T1, SETD2 (Homo sapiens, UniProt Q9BYW2); experiment: Methyl transferase scintillation proximity assay; assay type: biochemical; conditions: average of two measurements, read-out: MTases Inhibition (%)
T1 construct: purchased DiscoverX BROMOscan (bromodomains); SGC in-house methyltransferase panel
T1 sequence (Q9BYW2 whole entry): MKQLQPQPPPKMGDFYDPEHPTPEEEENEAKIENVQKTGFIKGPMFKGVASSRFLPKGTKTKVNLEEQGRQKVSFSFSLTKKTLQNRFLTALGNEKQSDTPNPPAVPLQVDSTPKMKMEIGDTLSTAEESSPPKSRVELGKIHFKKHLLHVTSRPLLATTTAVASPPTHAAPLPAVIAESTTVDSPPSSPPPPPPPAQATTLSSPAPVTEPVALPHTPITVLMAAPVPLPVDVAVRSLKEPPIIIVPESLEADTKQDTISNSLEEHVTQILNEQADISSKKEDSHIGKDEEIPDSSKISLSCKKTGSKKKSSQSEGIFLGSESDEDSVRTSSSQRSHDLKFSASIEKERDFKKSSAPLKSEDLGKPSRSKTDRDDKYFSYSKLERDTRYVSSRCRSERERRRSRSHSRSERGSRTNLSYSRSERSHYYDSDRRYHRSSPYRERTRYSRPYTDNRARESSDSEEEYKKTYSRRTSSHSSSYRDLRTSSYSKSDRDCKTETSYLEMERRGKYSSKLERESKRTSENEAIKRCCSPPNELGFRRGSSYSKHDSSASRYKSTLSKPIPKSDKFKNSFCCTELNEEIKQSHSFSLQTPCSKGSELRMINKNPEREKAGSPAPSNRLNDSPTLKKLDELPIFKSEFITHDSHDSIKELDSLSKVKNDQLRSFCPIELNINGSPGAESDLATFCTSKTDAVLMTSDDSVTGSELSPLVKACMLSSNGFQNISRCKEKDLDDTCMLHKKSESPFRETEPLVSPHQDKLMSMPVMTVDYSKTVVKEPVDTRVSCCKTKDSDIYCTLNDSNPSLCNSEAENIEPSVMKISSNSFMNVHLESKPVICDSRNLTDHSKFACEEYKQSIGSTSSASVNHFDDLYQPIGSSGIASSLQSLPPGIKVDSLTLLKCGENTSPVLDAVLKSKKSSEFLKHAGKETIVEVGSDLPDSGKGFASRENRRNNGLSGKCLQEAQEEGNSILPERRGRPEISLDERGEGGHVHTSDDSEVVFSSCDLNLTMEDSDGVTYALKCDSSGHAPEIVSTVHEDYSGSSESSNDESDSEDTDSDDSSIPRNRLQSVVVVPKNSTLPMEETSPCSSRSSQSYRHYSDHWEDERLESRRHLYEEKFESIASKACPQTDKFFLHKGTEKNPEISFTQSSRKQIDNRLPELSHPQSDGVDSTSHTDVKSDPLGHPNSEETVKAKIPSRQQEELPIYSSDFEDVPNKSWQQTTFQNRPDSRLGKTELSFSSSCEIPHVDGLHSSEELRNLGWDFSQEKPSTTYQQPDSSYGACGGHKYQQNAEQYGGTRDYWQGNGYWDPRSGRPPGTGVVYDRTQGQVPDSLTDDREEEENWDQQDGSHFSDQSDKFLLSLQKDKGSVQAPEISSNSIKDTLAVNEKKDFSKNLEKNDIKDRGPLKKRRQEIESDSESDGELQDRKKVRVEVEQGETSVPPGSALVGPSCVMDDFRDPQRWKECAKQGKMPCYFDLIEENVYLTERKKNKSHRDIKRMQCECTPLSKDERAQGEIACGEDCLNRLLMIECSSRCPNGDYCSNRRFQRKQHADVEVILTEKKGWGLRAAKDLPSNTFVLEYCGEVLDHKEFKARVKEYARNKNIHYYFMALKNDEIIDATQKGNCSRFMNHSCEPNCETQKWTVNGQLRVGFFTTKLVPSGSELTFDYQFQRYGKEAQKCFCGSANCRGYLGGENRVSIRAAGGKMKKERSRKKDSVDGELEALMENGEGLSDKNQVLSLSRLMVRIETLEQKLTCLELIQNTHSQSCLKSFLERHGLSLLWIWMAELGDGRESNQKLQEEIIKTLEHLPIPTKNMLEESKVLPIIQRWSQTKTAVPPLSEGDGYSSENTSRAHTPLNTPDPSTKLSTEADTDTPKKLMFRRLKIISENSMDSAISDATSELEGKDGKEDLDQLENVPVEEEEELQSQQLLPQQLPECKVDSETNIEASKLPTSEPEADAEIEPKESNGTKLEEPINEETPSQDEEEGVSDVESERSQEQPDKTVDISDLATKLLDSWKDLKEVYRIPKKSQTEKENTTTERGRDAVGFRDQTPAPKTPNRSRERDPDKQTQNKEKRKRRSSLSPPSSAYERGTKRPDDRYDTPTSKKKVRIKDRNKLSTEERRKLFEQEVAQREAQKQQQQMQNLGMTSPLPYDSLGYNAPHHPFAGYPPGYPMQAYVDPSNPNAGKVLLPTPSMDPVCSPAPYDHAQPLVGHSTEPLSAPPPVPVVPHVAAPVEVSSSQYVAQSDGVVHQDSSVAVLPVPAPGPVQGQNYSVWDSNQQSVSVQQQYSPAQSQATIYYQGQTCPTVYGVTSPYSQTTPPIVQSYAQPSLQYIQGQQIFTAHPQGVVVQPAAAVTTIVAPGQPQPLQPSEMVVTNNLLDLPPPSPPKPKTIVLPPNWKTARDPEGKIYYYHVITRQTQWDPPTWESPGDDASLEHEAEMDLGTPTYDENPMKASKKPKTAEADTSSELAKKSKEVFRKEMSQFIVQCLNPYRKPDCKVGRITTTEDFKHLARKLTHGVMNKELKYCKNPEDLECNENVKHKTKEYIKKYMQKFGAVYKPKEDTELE
Outline: (§1)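 Scintillation proximity format using ^3H-SAM as methyl donor; substrate biotinylated. Levels of both near apparent Km. Activity expressed relative to compound-free (100%) and enzyme-free (0%) counts.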

[2] = target: T2, GLP (Homo sapiens, UniProt Q9H9B1); experiment: Methyl transferase scintillation proximity assay; assay type: biochemical; conditions: average of two measurements, read-out: MTases Inhibition (%)
T2 construct: purchased DiscoverX BROMOscan (bromodomains); SGC in-house methyltransferase panel
T2 sequence (Q9H9B1 1-1298): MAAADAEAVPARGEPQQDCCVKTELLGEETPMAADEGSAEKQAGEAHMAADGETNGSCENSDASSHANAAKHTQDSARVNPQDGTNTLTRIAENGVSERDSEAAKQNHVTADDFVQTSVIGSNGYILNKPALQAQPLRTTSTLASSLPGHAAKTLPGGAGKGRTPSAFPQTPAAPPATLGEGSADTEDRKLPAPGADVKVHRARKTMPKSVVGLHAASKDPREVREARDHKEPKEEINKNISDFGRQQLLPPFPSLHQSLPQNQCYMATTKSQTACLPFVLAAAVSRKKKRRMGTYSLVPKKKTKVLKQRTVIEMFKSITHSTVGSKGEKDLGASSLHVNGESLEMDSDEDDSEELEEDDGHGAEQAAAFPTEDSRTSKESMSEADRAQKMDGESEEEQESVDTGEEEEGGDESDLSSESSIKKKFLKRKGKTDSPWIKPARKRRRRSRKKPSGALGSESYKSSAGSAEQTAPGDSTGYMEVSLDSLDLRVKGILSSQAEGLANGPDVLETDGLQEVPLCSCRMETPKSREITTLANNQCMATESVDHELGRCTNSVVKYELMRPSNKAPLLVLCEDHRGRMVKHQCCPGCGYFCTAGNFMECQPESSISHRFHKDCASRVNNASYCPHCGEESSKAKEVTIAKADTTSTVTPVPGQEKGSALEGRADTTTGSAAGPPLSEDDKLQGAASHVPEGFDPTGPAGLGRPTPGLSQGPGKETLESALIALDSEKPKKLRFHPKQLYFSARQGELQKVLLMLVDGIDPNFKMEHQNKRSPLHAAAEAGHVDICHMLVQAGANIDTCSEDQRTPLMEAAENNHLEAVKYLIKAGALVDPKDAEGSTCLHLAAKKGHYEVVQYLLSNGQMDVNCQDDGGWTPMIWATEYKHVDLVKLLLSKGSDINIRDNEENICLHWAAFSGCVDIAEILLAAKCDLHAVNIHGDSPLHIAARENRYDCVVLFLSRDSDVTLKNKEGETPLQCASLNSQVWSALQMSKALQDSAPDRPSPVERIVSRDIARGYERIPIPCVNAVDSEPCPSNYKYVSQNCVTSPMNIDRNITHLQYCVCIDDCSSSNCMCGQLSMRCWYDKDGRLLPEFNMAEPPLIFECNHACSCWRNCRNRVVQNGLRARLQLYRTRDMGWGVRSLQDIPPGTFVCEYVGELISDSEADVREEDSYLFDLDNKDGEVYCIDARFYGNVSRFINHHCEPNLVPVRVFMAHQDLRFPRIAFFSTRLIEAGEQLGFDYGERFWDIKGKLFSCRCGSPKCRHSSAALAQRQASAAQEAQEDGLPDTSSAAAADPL
Outline: as §1

[3] = target: T3, TRIM33(PHD,BRD) (Homo sapiens, UniProt Q9UPN9); experiment: BROMOscan ligand-binding assay; conditions: for Kd: KD (BROMOscan), sheet prints no unit (nM)
T3 sequence (Q9UPN9 882-1087 limits assumed): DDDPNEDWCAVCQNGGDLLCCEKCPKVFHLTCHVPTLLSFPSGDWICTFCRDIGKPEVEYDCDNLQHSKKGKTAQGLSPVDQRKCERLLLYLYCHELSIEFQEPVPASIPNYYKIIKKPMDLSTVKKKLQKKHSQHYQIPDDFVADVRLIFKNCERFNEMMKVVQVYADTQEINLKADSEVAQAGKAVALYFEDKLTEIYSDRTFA
From the text: (§2) BROMOscan is a binding assay based on the well-known KINOMEscan technology. This assay measures the binding of a DNA-tagged bromodomain to an immobilized BRD ligand. If an inhibitor is present, it will compete with the bromodomain binding to the immobilized ligand, resulting in reduction of a quantitative PCR (qPCR) signal in a dose-dependent manner.

[4] = target: BRD4(2) (Homo sapiens, UniProt O60885); experiment: BROMOscan ligand-binding assay
From the text: as §2

[5] = target: PBRM1(2) (Homo sapiens, UniProt Q86U86); experiment: BROMOscan ligand-binding assay; conditions: for Kd: sheet prints no unit (nM)
PBRM1(2), sequence (Q86U86 177-287 limits assumed): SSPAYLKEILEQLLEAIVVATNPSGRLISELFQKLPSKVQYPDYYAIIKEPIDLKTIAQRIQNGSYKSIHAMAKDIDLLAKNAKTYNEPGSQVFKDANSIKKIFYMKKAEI
From the text: as §2

[6] = target: T4, GCN5L2 (Homo sapiens, UniProt Q92830); experiment: BROMOscan ligand-binding assay; conditions: for Kd: KD (BROMOscan), sheet prints no unit (nM)
T4 sequence (Q92830 728-832 limits assumed): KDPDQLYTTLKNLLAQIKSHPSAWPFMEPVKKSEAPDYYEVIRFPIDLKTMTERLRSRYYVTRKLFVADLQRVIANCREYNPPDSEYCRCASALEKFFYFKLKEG
From the text: as §2

[7] = target: T5, TAF1L(2) (Homo sapiens, UniProt Q8IZX4); experiment: BROMOscan ligand-binding assay
T5 sequence (Q8IZX4 1517-1626 limits assumed): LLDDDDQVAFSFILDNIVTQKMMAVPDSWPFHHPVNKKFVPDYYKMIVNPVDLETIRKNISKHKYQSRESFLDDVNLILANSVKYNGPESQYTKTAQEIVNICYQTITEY
From the text: as §2

[8] = target: T6, ATAD2A (Homo sapiens, UniProt Q6PL18); experiment: BROMOscan ligand-binding assay; conditions: for Kd: KD (BROMOscan), sheet prints no unit (nM)
T6 sequence (Q6PL18 980-1092 limits assumed): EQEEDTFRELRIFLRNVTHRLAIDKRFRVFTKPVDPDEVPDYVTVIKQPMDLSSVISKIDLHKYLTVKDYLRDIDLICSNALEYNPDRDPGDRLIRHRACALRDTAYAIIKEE
From the text: as §2

[9] = target: SMARCA2 (Homo sapiens, UniProt P51531); experiment: BROMOscan ligand-binding assay; conditions: for Kd: sheet prints no unit (nM)
SMARCA2, sequence (P51531 1-1572 isoform P51531-2): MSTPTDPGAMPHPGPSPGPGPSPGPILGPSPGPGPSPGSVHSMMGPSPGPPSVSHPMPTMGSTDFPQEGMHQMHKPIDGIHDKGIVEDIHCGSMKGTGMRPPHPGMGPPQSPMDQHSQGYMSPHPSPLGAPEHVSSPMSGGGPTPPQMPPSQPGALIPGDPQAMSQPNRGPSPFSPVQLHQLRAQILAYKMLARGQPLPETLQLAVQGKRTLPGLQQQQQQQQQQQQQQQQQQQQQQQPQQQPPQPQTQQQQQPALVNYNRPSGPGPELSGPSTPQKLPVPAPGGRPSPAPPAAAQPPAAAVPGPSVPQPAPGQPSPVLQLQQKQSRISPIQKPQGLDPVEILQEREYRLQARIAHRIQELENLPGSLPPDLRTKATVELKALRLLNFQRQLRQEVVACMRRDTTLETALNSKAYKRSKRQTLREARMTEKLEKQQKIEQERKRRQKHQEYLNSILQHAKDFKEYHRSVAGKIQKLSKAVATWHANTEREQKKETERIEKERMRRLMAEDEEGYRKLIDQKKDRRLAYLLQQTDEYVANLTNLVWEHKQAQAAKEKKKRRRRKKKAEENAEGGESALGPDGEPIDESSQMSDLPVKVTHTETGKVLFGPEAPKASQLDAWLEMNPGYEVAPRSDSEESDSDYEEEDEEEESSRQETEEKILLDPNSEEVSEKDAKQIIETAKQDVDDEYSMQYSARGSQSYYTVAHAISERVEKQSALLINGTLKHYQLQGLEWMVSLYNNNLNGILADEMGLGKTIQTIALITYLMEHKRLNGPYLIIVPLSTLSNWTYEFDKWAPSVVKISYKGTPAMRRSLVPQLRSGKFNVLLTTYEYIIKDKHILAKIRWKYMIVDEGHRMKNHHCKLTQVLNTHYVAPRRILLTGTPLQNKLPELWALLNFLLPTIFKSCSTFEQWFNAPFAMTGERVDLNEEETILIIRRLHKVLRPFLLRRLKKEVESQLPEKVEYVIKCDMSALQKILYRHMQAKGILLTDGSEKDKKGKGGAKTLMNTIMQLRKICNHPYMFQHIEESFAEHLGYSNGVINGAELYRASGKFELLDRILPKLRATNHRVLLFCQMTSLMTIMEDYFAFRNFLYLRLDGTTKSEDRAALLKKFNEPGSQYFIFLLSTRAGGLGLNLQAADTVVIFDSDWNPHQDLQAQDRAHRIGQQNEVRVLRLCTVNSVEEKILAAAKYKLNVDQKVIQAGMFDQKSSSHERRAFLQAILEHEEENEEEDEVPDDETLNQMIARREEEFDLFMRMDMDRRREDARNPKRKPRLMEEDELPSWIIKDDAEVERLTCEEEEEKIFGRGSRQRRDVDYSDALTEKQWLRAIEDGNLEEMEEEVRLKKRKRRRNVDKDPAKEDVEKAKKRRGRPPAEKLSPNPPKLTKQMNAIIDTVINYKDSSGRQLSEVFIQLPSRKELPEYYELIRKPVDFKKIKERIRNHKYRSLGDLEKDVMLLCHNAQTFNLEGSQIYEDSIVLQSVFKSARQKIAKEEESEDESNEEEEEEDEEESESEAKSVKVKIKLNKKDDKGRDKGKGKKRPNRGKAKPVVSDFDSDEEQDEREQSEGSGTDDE
From the text: as §2

[10] = target: T7, TRIM24 (Homo sapiens, UniProt O15164); experiment: BROMOscan ligand-binding assay
T7 sequence (O15164 899-1004 limits assumed): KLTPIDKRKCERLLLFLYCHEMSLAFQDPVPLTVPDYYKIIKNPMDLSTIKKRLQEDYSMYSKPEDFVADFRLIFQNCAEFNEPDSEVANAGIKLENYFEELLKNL
From the text: as §2

inhibition at 10 µM [1]: 11%
inhibition at 10 µM [2]: 2%
SMILES: Cc1nnc2c3ccccc3c(N[C@@H](C)[C@H](c3ccccc3)N(C)C)nn12 [L-Moses]

pKd ([3]; BROMOscan, TRIM33(PHD,Bromo.)): < 4.30
pKd ([4]; BROMOscan, BRD4(2)): 4.60
pKd ([5]; BROMOscan, PBRM1(2)): < 4.30
pKd ([6]; BROMOscan, GCN5L2): < 4.30
pKd ([7]; BROMOscan, TAF1L(2)): < 4.30
pKd ([8]; ATAD2A): < 4.30
pKd ([9]; BROMOscan, SMARCA2): < 4.30
pKd ([10]; BROMOscan, TRIM24(Bromo.)): < 4.30
SMILES: Cc1cc(=O)n(C)c2cc(N3C(=O)CC[C@H](NS(=O)(=O)CC(C)C)[C@H]3c3ccc(Cl)cc3)ccc12 [LP-99]

pKd ([3]; TRIM33(PHD,Bromo.)): < 4.30
pKd ([4]; BRD4(2)): < 4.30
pKd ([5]; PBRM1(2)): < 4.30
pKd ([6]; GCN5L2): 5.39
pKd ([7]; TAF1L(2)): 5.26
pKd ([8]; ATAD2A): < 4.30
pKd ([9]; SMARCA2): < 4.30
pKd ([10]; TRIM24(Bromo.)): 5.80
SMILES: COc1cc(C#N)ccc1S(=O)(=O)Nc1ccc2c(c1)cc(C)c(=O)n2C [NI 57]

SMILES: CCCS(=O)(=O)c1nc(NC2CC2)cc(-c2ccc3c(ccn3C3CC(C)(C)NC(C)(C)C3)c2)n1 [NVS-CECR2-1]
pKd [3]: < 4.52
pKd [4]: 5.24
pKd [5]: < 4.52
pKd [6]: < 4.52
pKd [7]: 5.02
pKd [8]: < 4.52
pKd [9]: < 4.52
pKd [10]: < 4.52

pKd ([3]; TRIM33(PHD,Bromo.)): 4.40
pKd ([5]; PBRM1(2)): < 4.30
Kd ([5]; read-out: KD (BROMOscan)): > 30000 nM
pKd ([6]; GCN5L2): 5.16
pKd ([7]; TAF1L(2)): 5.28
pKd ([8]; ATAD2A): < 4.30
pKd ([9]; SMARCA2): < 4.30
Kd ([9]; read-out: KD (BROMOscan)): > 30000 nM
pKd ([10]; TRIM24(Bromo.)): 5.72
SMILES: COc1cc2c(cc1NS(=O)(=O)c1ccc(Br)cc1C)n(C)c(=O)n2C [OF-1]

pKd ([3]; BROMOscan, TRIM33(PHD,Bromo.)): < 4.52
pKd ([4]; BROMOscan, BRD4(2)): < 4.52
pKd ([5]; BROMOscan, PBRM1(2)): 6.77
pKd ([6]; BROMOscan, GCN5L2): 4.64
pKd ([7]; BROMOscan, TAF1L(2)): < 4.52
pKd ([8]; BROMOscan, ATAD2A): < 4.52
pKd ([9]; BROMOscan, SMARCA2): 7.31
pKd ([10]; BROMOscan, TRIM24(Bromo.)): < 4.52
SMILES: O=C(C=CN1[C@H]2CC[C@@H]1c1ncnc(NC3CC3)c1C2)c1ccccc1O [PFI-3 D1]

Kd [3]: > 30000 nM
pKd ([3]; KD, TRIM33(PHD,Bromo.)): < 4.00
Kd [6]: > 30000 nM
pKd ([6]; KD, GCN5L2): < 4.00
Kd [8]: > 30000 nM
pKd ([8]; KD, ATAD2A): < 4.00
Kd ([10]; KD (BROMOscan), sheet prints no unit (nM)): > 30000 nM
pKd ([10]; KD, TRIM24(Bromo.)): < 4.00
SMILES: O=C(C=CN1CC2CC1CN2c1ccccn1)c1ccccc1O (stereo not shown) [PFI-3]

Kd [3]: > 30000 nM
pKd ([3]; KD, BROMOscan, TRIM33(PHD,Bromo.)): < 4.00
pKd [4]: 5.21
Kd ([5]; KD (BROMOscan)): > 30000 nM
pKd ([5]; KD, BROMOscan, PBRM1(2)): < 4.00
Kd [6]: > 30000 nM
pKd ([6]; KD, BROMOscan, GCN5L2): < 4.00
pKd [7]: 5.15
Kd [8]: > 30000 nM
pKd ([8]; KD, BROMOscan, ATAD2A): < 4.00
Kd ([9]; KD (BROMOscan)): > 30000 nM
pKd ([9]; KD, BROMOscan, SMARCA2): < 4.00
pKd ([10]; KD, BROMOscan, TRIM24(Bromo.)): 4.92
SMILES: COc1ccc(CCc2nc3cc(-c4c(C)noc4C)ccc3n2C[C@H](C)N2CCOCC2)cc1Cl [SGC-CBP30]

pKd ([3]; KD, TRIM33(PHD,Bromo.)): < 1.85
pKd [4]: < 1.85
pKd ([5]; KD, PBRM1(2)): 3.00
pKd ([6]; KD, GCN5L2): < 1.85
pKd [7]: < 1.85
pKd ([9]; KD, SMARCA2): 3.60
pKd ([10]; KD, TRIM24(Bromo.)): < 1.85
SMILES: O=C(O)c1ccccc1O [Salicylic Acid]

inhibition at 10 µM [1]: 19%
inhibition at 10 µM [2]: 1%
SMILES: CN(C)CCCOc1ccc(-c2cc(NCCCn3cccn3)nc(S(C)(=O)=O)n2)cc1 [TP-238]
